“Also recorded” adds a separate entry of the source. Read-outs that look alike come from different tables or passages of the source.
Assays:
[1] = cited from earlier work
[2] = tested on: murine leukemia virus (MULV); settings: for survival rate at 21 days / post-treatment CD4/CD8 ratio: 72 feet; for survival rate at 21 days: 2 hours daily; for survival rate at 21 days / mice that died during the treatment period: 12 mice per group; for post-treatment CD4/CD8 ratio / post-treatment CD4 count (FACS): 2 hours, versus post-treatment control; for post-treatment CD4/CD8 ratio: six days a week, three weeks; for hypocellular medullary sinuses of lymph nodes: H&E histology after three-week treatment; for lymph node architecture: after 21 days of treatment; for spleen size / lymph node size: after three-week treatment; for spleen size: N2 and air versus control and oxygen; for lymph node size: area = length times width of cut node; for post-treatment CD4 count (FACS): orbital blood, 72 feet of seawater, six days a week for three weeks; for physical condition / grooming: versus control and oxygen groups; for mice that died during the treatment period: days 6 and 14; for overall effect relative to control conditions: 72 ft for 2 hours, 6 days per week
Protocol: FIG. 5A represents the cross section of an actual lymph node removed from a mouse that took part in a study of the present method. […] As a result of the observations on divers in Puerto Rico, it was decided to first test this concept in murine leukemia virus-MULV mice exposed to increased pressures of nitrogen at a depth of 72 feet for 2 hours 6 days per week for 3 weeks. […] The murine model, AKR-J strain of mice which are viremic from birth, were used to test the hypotheses. The animal model was chosen because of its striking similarities to human AIDS. […] The mice were separated at random into four groups of 12 mice in each group. Group 1 was control. Group 2 was exposed to air at sea level pressure. Group 3 was exposed to N2 and Group 4 to O2 under the following conditions. The mice were placed in a small (5.88 cubic feet), temperature controlled hyperbaric chamber and compressed with Air, N2+6.5% O2 or 100% O2. Groups were taken separately to a pressure of 72 feet of seawater. The animals reached maximum treatment pressure in 6-7 minutes and remained at this pressure for 2 hours. They were then returned to normal barometric pressure at a rate of one foot per minute (72 minutes). This process was performed each day for six days a week for three weeks. The control group of animals (Group 1) was exposed to normal surface conditions for the same period of time.
Cytological and histological measurements. Pre- and post-flow cytometry (FACS) analysis was performed on samples of orbital blood from 10 animals in each group labeled with anti-mouse CD4/CD8 fluorescence markers. Animals were anesthetized using methoxyflurane and blood was collected with a heparinized Pasteur pipette. Lymphocytes were stained with anti CD4-PE and anti CD8-FITC (Pharmingen) for 15 minutes. Erythrocytes were hemolyzed in lysis solution (Becton Dickinson) for 10 minutes, washed with PBS/azide solution, centrifuged and the supernatant was discarded. The pellet was fixed with 1% formalin in PBS, and stored at 4° C. until cytometry (Becton Dickinson FACS Scan; San Jose, Calif.). At the end of the three-week treatment period, blood samples were obtained and the mice were sacrificed. The lymph nodes, spleen, thymus, liver and brain tissue were collected immediately placed in 10% formalin. Following fixation and routine paraffin processing, 4 μm sections of lymph nodes were obtained after cutting randomly selected nodes through the center parallel to the long axis of the node. The slides were stained with hematoxylin and eosin (H&E) and reviewed by a pathologist that was blinded to knowledge of animal treatment groups. The presence of secondary follicles and paracortical expansion were quantitated for each animal as a percentage of lymph nodes. As medullary sinuses were not present in every lymph node profile, the presence of medullary sinus hypocellularity was quantitated as a percentage of lymph nodes which contained sinuses. In addition the approximate surface area of the cut node was computed from the product of the length and width in its maximum dimensions. The remaining tissues were examined qualitatively for pathological changes.
FIG. 6 is bar chart showing the average size of lymph nodes taken from the mice of different groups in the study discussed above. The lymph nodes were taken from the cervical, thoracic, and abdominal regions and fixed in 10% formalin. The nodes were then sectioned through the center of the long axis, and area was computed as the product of length times width.

[3] = listed as Mixtures with enriched nitrogen

Compound: [N-]=[N+]=O [nitrous oxide]
- anesthetic effect ([1]; 90% N2O and 10% O2 at atmospheric pressure (760 mmHg)): many subjects do not even lose consciousness
- anesthetic effect ([1]; 1520 mmHg or 2 atmospheres absolute (1368 mmHg N2O+125 mmHg oxygen)): deep anesthesia

Compound: N#N [N2, nitrogen]
- survival rate at 21 days [2]: 100%
- post-treatment CD4/CD8 ratio [2]: significantly higher
- post-treatment CD4/CD8 ratio [2, 3]: increased
- hypocellular medullary sinuses of lymph nodes [2]: significantly more hypocellular sinuses were present in the control group and the O2 group than in the N2 and Air groups; also recorded: significant differences in sinus cellularity
- lymph node architecture [2]: improved lymph node architecture
- lymph node architecture [2, 3]: preserved
- spleen size [2]: smaller by about one third
- lymph node size [2]: smaller
- lymph node size ([2]; listed as hyperbaric N2): significantly attenuated the lymphadenopathy
- lymph node size ([2]; listed as nitrogen): significant reduction
- number of nodes with paracortical expansion ([2]; lymph node histology): reduction
- number of nodes with secondary follicles ([2]; lymph node histology): reduction
- number of sinuses with histiocytes ([2]; lymph node histology): increase
- post-treatment CD4 count (FACS) [2]: increased and were significantly higher than post-treatment CD4 count in control animals
- post-treatment CD4 count (FACS) ([2]; listed as hyperbaric N2): improved CD4 counts
- physical condition / grooming [2]: better grooming
- physical condition / grooming [2, 3]: improved
- physical condition / grooming ([2]; listed as nitrogen): appeared physically more healthy; also recorded: improved physical condition

Compound: O=O [O2, oxygen, reference compound]
- mice that died during the treatment period [2]: Two
- mice that died during the treatment period ([2]; listed as oxygen): two
- survival rate at 21 days [2]: 83%
- post-treatment CD4/CD8 ratio [2]: significantly lower
- post-treatment CD4/CD8 ratio ([2]; listed as hyperbaric oxygen): significantly decreased
- post-treatment CD4/CD8 ratio ([2]; listed as oxygen): significantly lower
- overall effect relative to control conditions ([2]; listed as Oxygen): significant negative effect
- overall effect relative to control conditions ([2]; listed as hyperbaric oxygen): no beneficial effect
- overall effect relative to control conditions ([2]; listed as oxygen): fared worse than the control group
- hypocellular medullary sinuses of lymph nodes [2]: significantly more hypocellular sinuses
- spleen size [2]: much bigger
- lymph node size [2]: much bigger
- post-treatment CD4 count (FACS) ([2]; listed as hyperbaric oxygen): significantly decreased
